In publication PMC10303900, “Discovery of a New Chalcone-Trimethoxycinnamide Hybrid with Antimitotic Effect: Design, Synthesis, and Structure—Activity Relationship Studies” (Pharmaceuticals, 2023):

Tests used:
HCT116 cells [1] = test: Immunofluorescence of mitotic spindle morphology (anti-α-tubulin); assay type: cell-based, human; details: HCT116, GI50 of the compound, 24 h
Experimental: To understand the mechanism behind the induction of mitotic arrest after treatment with the compound 7, we treated HCT116 cells with the GI50 of the compound. Twenty-four hours later, we performed an immunofluorescence assay using an anti-α-tubulin antibody to visualize the spindle morphology.
Cells were treated as for DAPI staining. After methanol fixation, cells were blocked with 10% FBS in PBST (0.05% Tween-20 in PBS) for 30 min at room temperature, followed by 1 h incubation with a primary antibody (mouse anti-α-tubulin, 1:2500, Sigma-Aldrich Co., Ltd., Gillingham, UK) diluted in 5% FBS in PBST. Then, cells were washed three times in PBST and incubated with an Alexa Fluor 488 conjugated secondary antibody (1:1500, Molecular Probes, Eugene, OR, USA). DNA was stained with DAPI.

HCT116 cells [2] = test: Apoptosis detection via flow cytometry (Annexin V-FITC/PI); assay type: cell-based, human; details: HCT116, 48 h, vs untreated or DMSO
Experimental: Double labeling with annexin V-FITC and propidium iodide dyes was used to detect cells going through apoptotic events, using a flow cytometer in order to obtain insights into the mechanism by which compounds 6, 7, and 13 generate antiproliferative activity against colorectal carcinoma cells. For that, HCT116 cells were exposed to each compound for 48 h.
To evaluate apoptotic cell death, the “Annexin V-FITC Apoptosis Detection Kit” (eBioscience, Vienna, Austria) was used according to the manufacturer’s instructions. Briefly, 1.2 × 10^5 cells/well were seeded into 6-well plates, and 24 h later, cells were treated with compounds 6, 7, and 13. After 48 h, floating and adherent cells were collected, pelleted via centrifugation (1000 rpm, 5 min), and suspended in binding buffer. Annexin V-FITC was added and incubated for 10 min, protected from light. Cells were washed and resuspended in binding buffer, and 20 μg/mL of propidium iodide (PI) was added. Fluorescence was assessed using the BD Accuri™ C6 Plus flow cytometer (BD Biosciences, Qume Drive, San Jose, CA, USA), and the data were analyzed with the BD Accuri TM C6 Plus software (version 1.0.27.1, San Jose, CA, USA). At least 20,000 events per sample were collected.

p53–MDM2 interaction = target: T1, p53–MDM2 interaction (Homo sapiens, UniProt Q00987); test: Yeast targeted screening assay of p53–MDM2 interaction; details: 10 μM, yeast cell-based assay, data not shown
T1 construct: expressed in transfected cells; host or cells: Saccharomyces cerevisiae strain CG379
Experimental: However, since CM-M345 (1) has been previously reported as a p53-MDM2 inhibitor by our research group, the effect of 10 μM of compounds 6, 7, and 13 on the p53–MDM2 interaction was analyzed using yeast cell-based assays.
Saccharomyces cerevisiae (strain CG379) expressing human wt p53 alone and combined with human MDM2 were obtained in previous works. For the expression of human proteins (routinely grown in minimal selective medium), cells were diluted to 0.05 OD600 in selective induction medium containing 2% (w/w) galactose, 1% (w/w) raffinose, 0.7% (w/w) yeast nitrogen base without amino acids from Difco (Quilaban, Sintra, Portugal), and all the amino acids required for yeast growth ([…]) except leucine and tryptophan. Yeast cells were incubated at 30 °C under continuous orbital shaking (200 rpm) with 10 µM compounds or 0.1% DMSO only, for approximately 42 h (time required by the control yeast, co-transformed with the empty vectors and incubated with DMSO only, to achieve 0.4 OD600). Yeast growth was analyzed by counting the number of colony-forming units (CFU) after 2 days of incubation at 30 °C on Sabouraud Dextrose Agar from Liofilchem (Frilabo, Porto, Portugal).

A375-C5 = test: Sulforhodamine B (SRB) growth inhibition assay, melanoma cells; assay type: cell-based; details: Homo sapiens, 48 h
Experimental: (§1) A sulforhodamine B (SRB) assay was performed to evaluate the in vitro growth inhibitory activity of all synthesized hybrids, as well as intermediates in the human tumor cell lines of melanoma (A375-C5), breast adenocarcinoma (MCF-7), and colorectal carcinoma (HCT116), as well as on the non-tumor Human Pulmonary Alveolar Epithelial cell line (HPAEpiC). The concentration inducing 50% cell growth inhibition (GI50), was calculated. […] The overall results prompt us to further investigate the mechanism behind the cytotoxic activities of compounds 6, 7, and 13 in colorectal tumor cells. Moreover, in silico studies were performed, aiming to screen for drug-likeness.
(§2) A375-C5 (melanoma) and MCF-7 (breast adenocarcinoma) cell lines were obtained from the European Collection of Cell Culture, UK, and were grown in RPMI-1640 medium (Roswell Park Memorial Institute, Biochrom, Cambridge, UK) with 5% inactivated FBS (fetal bovine serum, Biochrom). HCT-116 (colon adenocarcinoma) cells were grown in DMEM medium (Dulbecco’s Modified Eagle’s, Biochrom) with 5% inactivated FBS. The non-tumor human pulmonary alveolar epithelial cells (HPAEpiC) were obtained from ScienCell Research Laboratories and grown in DMEM medium supplemented with 10% FBS and 1% non-essential amino acids (Sigma-Aldrich Co., Saint Louis, MO, USA). All cell lines were maintained in a humidified incubator (Hera Cell, Heraeus, Hanau, Germany) at 37 °C and with 5% CO2, and cell viability was regularly monitored using the exclusion trypan blue dye.
(§3) A total of 5.0 × 10^4 A375-C5, MCF-7, and HCT-116 cells, or 6.0 × 10^4 HPAEpiC cells were seeded in 96-well plates and incubated at 37 °C and 5% CO2 to allow for cell attachment. After 24 h, cells were treated with two-fold serial dilutions of test compounds (0–150 µM), or with DMSO as the compound solvent. In parallel, cells in a time-zero (T0) plate, without treatment, were fixed with 50% (m/v) trichloroacetic acid (TCA, Merck Millipore, Darmstadt, Germany), for 1 h at 4 °C, and then washed with distilled water and left to dry. Forty-eight hours after compound treatment, cells were fixed with 50% TCA and stained with SRB (Sigma-Aldrich Co., Ltd., Gillingham, UK) for 30 min at room temperature, followed by 5 rounds of washing with 1% (v/v) acetic acid (Merck Milli-pore, Darmstadt, Germany). SRB–protein complexes were then solubilized with […] Tris buffer (Sigma-Aldrich Co., Ltd., Gillingham, UK) for 30 min, and the absorbance was measured at 515 nm in a microplate reader (Biotek Synergy 2, BioTek Instruments, Inc., Winooski, VT, USA). A dose-response curve was obtained for each cell line, and the concentration that caused 50% cell growth inhibition (GI50) was calculated.

HPAEpiC = test: SRB growth inhibition assay, non-tumor pulmonary alveolar epithelial cells; assay type: cell-based; details: Homo sapiens, Epithelial cell, 48 h
Experimental: as §1, §2, §3

T1 sequence (Q00987 whole entry): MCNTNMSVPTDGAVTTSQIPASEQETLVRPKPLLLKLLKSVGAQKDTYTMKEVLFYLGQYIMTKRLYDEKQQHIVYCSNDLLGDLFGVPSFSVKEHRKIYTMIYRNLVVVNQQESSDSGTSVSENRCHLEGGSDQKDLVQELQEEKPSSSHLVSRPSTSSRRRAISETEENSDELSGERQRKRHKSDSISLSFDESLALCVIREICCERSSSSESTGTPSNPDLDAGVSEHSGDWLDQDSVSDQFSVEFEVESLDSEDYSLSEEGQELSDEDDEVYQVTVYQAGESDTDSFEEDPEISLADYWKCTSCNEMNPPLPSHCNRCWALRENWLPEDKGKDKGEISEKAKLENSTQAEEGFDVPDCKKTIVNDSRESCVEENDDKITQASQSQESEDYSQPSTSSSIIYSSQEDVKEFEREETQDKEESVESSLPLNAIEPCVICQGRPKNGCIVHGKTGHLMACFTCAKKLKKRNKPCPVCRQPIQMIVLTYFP

CCCc1c(OCCNC(=O)/C=C/c2cc(OC)c(OC)c(OC)c2)ccc(C(=O)/C=C/c2cc(OC)c(OC)c(OC)c2)c1O [Compound 7, (E)-N-(2-(3-hydroxy-2-propyl-4-((E)-3-(3,4,5-trimethoxyphenyl)acryloyl)phenoxy)ethyl)-3-(3,4,5-trimethoxyphenyl)acrylamide]
Cells with collapsed (monopolar-like) mitotic spindles (HCT116 cells [1]): 91.41 ± 4.87%
Percentage of bipolar spindles (HCT116 cells [1]): 6.57 ± 2.13%
Apoptosis induction (Annexin V-positive cells) (HCT116 cells [2]): induces apoptotic tumor cell death
Effect on the p53–MDM2 interaction (reversal of the negative growth effect of MDM2 on p53) (p53–MDM2 interaction): none of the tested compounds significantly reversed the negative inhibitory growth effect of MDM2 on p53
GI50 (A375-C5): 32.1 ± 1.27 µM
GI50 (HPAEpiC): 57.2 ± 8.68 µM
